Experimental data reported in patent publication US20090176817A1, “Method of Treatment of Diarrhea-Predominant Irritable Bowel Syndrome in a Subject” (priority 2005, published 2009).

Test system: diarrhea-predominant IBS subjects
Experiment: Study S241.3.009: weekly diary questions on adequate relief
Format: in vivo, human
Settings: for Overall responder rate, IBS symptoms / Overall responder rate, abdominal pain/discomfort / Overall responder rate, abnormal bowel habits: 26 weeks
Protocol: Study S241.3.009 was a Phase III, a double-blind, placebo-controlled, randomized, multinational study to investigate the safety and efficacy of 2 mg TID of cilansetron over 26 weeks in diarrhea-predominant IBS subjects. The study was conducted in 146 multinational study centers. A total of 1307 subjects consented to participate, and 806 subjects were randomized. A total of 792 subjects were analyzed for efficacy and 799 subjects were analyzed for safety. Diagnosis and main criteria for inclusion were IBS subjects satisfying the Rome I criteria (1992); the diarrhea-predominant sub-population of the Rome II criteria; and a minimum abdominal pain/discomfort, stool frequency and consistency determined during the run-in period. Subjects were treated with cilansetron 2 mg tablets given orally TID or matching placebo tablets given orally TID for 26 weeks.
The primary efficacy parameter was the overall response rate for IBS symptoms, based on the weekly question concerning adequate relief of IBS symptoms (abdominal pain/discomfort, abnormal bowel habits) over the 26 weeks period. A responder was a subject who responded “yes” at least 50% of the time during his/her treatment period, with minimum treatment duration of four weeks. The two main secondary efficacy parameters were overall responder rate based on the weekly question on adequate relief of abdominal pain/discomfort and abnormal bowel habits during the 26-week treatment period. The onset of action of cilansetron was also examined using daily diary data (stool frequency, and ratings of urgency and severity) during the initial 8 weeks of trial participation. An additional key secondary efficacy parameter was the number of months (one month equals four weeks) up to six months (24-weeks) that a subject was a responder for IBS symptoms, where a responder was defined as a subject who answered the weekly question with “yes” at least twice for that month. The responder rate for the weekly diary questions on adequate relief at each month and all months, the adequate relief rate, the number of subjects with adequate relief by week, daily diary questions, IBS-QOL scores, and the interruption of activities were also assessed. Safety was evaluated by physical examination, ECG, vital signs, laboratory evaluations, concomitant medications, and AEs.
Studies S24 1.3.OO6, S24 1.3.0 1 1, and S24 1.3.009 used the following efficacy measurements: • The subjects answered the following three questions with “yes” or “no” using a phone diary at the end of each week: • a) During the last week, did you experience adequate relief of your IBS symptoms, such as abdominal pain, abdominal discomfort, abnormal bowel habits? • b) During the last week, did you experience adequate relief of your abdominal pain and/or discomfort? • c) During the last week, did you experience adequate relief of your abnormal bowel habits? • The subjects rated the following symptoms using the phone diary at the end of each day: • abdominal pain/discomfort (five-point scale); • stool consistency (seven-point Bristol Stool Scale); • stool frequency (number of bowel movements each day); • urgency (five-point scale); • straining (yes or no); • feeling of incomplete defecation (yes or no); • bloating or feeling of abdominal distension (five-point scale). • In Studies S241 A006 and S241.3.009, subjects completed the IBS-QOL Survey at Baseline (Day 1) and at the end of treatment. In Study S24 1.3.0 1 1, subjects completed the IBS-QOL Survey at Baseline (Day 1), at the end of the three-month treatment period, and at the end of rerandomized treatment.
In all three pivotal efficacy studies, the primary and main secondary efficacy parameters were based on the weekly diary questions on adequate relief and included the following: • 1. Number of months (one month equals four weeks) that a subject was a responder for the weekly diary questions on adequate relief. […]

[1] = 2 mg TID, 26-week treatment period, observed case, ITT N = 395
[2] = 2 mg TID, Months 1 to 3, monthly LOCF, ITT N = 395
[3] = 2 mg TID, Months 1 to 3, observed case, ITT N = 395
[4] = 2 mg TID, Months 1 to 6, monthly LOCF, ITT N = 395
[5] = Baseline BMI: <30 kg/m^2, 26-week treatment period, observed case, ITT, 2 mg TID
[6] = Baseline BMI: <30 kg/m^2, Months 1 to 3, monthly LOCF, ITT, 2 mg TID

Compound: Cc1nccn1C[C@H]1CCc2c(c3cccc4c3n2CCC4)C1=O [Cilansetron, (R)-(−)-4,5,6,8,9,10-hexahydro-10-[(2-methyl-1H-imidazol-1-yl)methyl]-11H-pyrido-[3,2,1-jk]-carbazol-11-one]
- Overall responder rate, adequate relief of IBS symptoms [1]: 234 (59) n (%)
- Overall responder rate, adequate relief of abdominal pain/discomfort [1]: 239 (61) n (%)
- Overall responder rate, adequate relief of abnormal bowel habits [1]: 253 (64) n (%)
- Subjects who were responders for One month, Abdominal pain/discomfort [2]: 61 (15) n (%)
- Subjects who were responders for One month, Abnormal bowel habits [2]: 49 (12) n (%)
- Subjects who were responders for One month, IBS symptoms [2]: 55 (14) n (%)
- Subjects who were responders for Three months, Abdominal pain/discomfort [2]: 159 (40) n (%)
- Subjects who were responders for Three months, Abnormal bowel habits [2]: 165 (42) n (%)
- Subjects who were responders for Three months, IBS symptoms [2]: 150 (38) n (%)
- Subjects who were responders for Two months, Abdominal pain/discomfort [2]: 70 (18) n (%)
- Subjects who were responders for Two months, Abnormal bowel habits [2]: 83 (21) n (%)
- Subjects who were responders for Two months, IBS symptoms [2]: 80 (20) n (%)
- Subjects who were responders for Zero months, Abdominal pain/discomfort [2]: 105 (27) n (%)
- Subjects who were responders for Zero months, Abnormal bowel habits [2]: 98 (25) n (%)
- Subjects who were responders for Zero months, IBS symptoms [2]: 110 (28) n (%)
- Overall responder rate, adequate relief of IBS symptoms [3]: 219 (55) n (%)
- Overall responder rate, adequate relief of abdominal pain/discomfort [3]: 221 (56) n (%)
- Overall responder rate, adequate relief of abnormal bowel habits [3]: 243 (62) n (%)
- Subjects who were responders for Five months, Abdominal pain/discomfort [4]: 53 (13) n (%)
- Subjects who were responders for Five months, Abnormal bowel habits [4]: 61 (15) n (%)
- Subjects who were responders for Five months, IBS symptoms [4]: 58 (15) n (%)
- Subjects who were responders for Four months, Abdominal pain/discomfort [4]: 41 (10) n (%)
- Subjects who were responders for Four months, Abnormal bowel habits [4]: 41 (10) n (%)
- Subjects who were responders for Four months, IBS symptoms [4]: 52 (13) n (%)
- Subjects who were responders for One month, Abdominal pain/discomfort [4]: 26 (7) n (%)
- Subjects who were responders for One month, Abnormal bowel habits [4]: 17 (4) n (%)
- Subjects who were responders for One month, IBS symptoms [4]: 25 (6) n (%)
- Subjects who were responders for Six months, Abdominal pain/discomfort [4]: 133 (34) n (%)
- Subjects who were responders for Six months, Abnormal bowel habits [4]: 136 (34) n (%)
- Subjects who were responders for Six months, IBS symptoms [4]: 121 (31) n (%)
- Subjects who were responders for Three months, Abdominal pain/discomfort [4]: 31 (8) n (%)
- Subjects who were responders for Three months, Abnormal bowel habits [4]: 33 (8) n (%)
- Subjects who were responders for Three months, IBS symptoms [4]: 25 (6) n (%)
- Subjects who were responders for Two months, Abdominal pain/discomfort [4]: 26 (7) n (%)
- Subjects who were responders for Two months, Abnormal bowel habits [4]: 22 (6) n (%)
- Subjects who were responders for Two months, IBS symptoms [4]: 24 (6) n (%)
- Subjects who were responders for Zero months, Abdominal pain/discomfort [4]: 85 (22) n (%)
- Subjects who were responders for Zero months, Abnormal bowel habits [4]: 85 (22) n (%)
- Subjects who were responders for Zero months, IBS symptoms [4]: 90 (23) n (%)
- Overall responder rate, IBS symptoms (females): 63%
- Overall responder rate, abdominal pain/discomfort (females): 64%
- Overall responder rate, abnormal bowel habits (females): 67%
- Overall responder rate, IBS symptoms (males): 55%
- Overall responder rate, abdominal pain/discomfort (males): 57%
- Overall responder rate, abnormal bowel habits (males): 60%
- Overall responder rate, abdominal pain/discomfort (observed case): 61%
- Overall responder rate, abnormal bowel habits (observed case): 64%
- Overall responder rate, IBS symptoms (observed case, ITT): 59%
- Overall responder rate, IBS symptoms (weekly LOCF): 60%
- Overall responder rate, abdominal pain/discomfort (weekly LOCF): 61%
- Overall responder rate, abnormal bowel habits (weekly LOCF): 63%
- Overall responder rate difference vs placebo across diary questions (BMI≧30 kg/m^2): −10% to −1
- Overall responder rate, adequate relief of IBS symptoms [5]: 207 (63) n (%)
- Overall responder rate, adequate relief of abdominal pain/discomfort [5]: 207 (63) n (%)
- Overall responder rate, adequate relief of abnormal bowel habits [5]: 220 (67) n (%)
- Number of months a subject was a responder: One month (Abdominal pain/discomfort) [6]: 51 (15) n (%)
- Number of months a subject was a responder: One month (Abnormal bowel habits) [6]: 39 (12) n (%)
- Number of months a subject was a responder: One month (IBS symptoms) [6]: 49 (15) n (%)
- Number of months a subject was a responder: Three months (Abdominal pain/discomfort) [6]: 139 (42) n (%)
- Number of months a subject was a responder: Three months (Abnormal bowel habits) [6]: 144 (44) n (%)
